Measurements as given in patent publication US11369607B2, “Compositions, systems, and methods for generating inner ear hair cells for treatment of hearing loss” (Massachusetts Institute of Technology, priority 2014, dated 2022).
“Also recorded” adds a separate entry of the source.

Legend:
[1] = tested on: Lgr5+ supporting cells isolated from the cochlea; assay: Expansion of Lgr5-GFP inner ear progenitor cells in Matrigel based 3D culture; format: cell-based, mouse; settings: for Lgr5-GFP expression, effect of addition / cell proliferation, effect of addition: neonatal Lgr5 inner ear progenitor cells; for use in place of VPA: data not shown; for importance of the factor for cell proliferation / importance of the factor for Lgr5-GFP expression: factor removed from the culture medium; for GFP+ cell number / total number of cells / GFP+ percentage: named factor removed from EFICVP6, 10 days
Experimental: Cell culture: Heterozygous Lgr5-EGFP-IRES-CreERT2 mice were obtained from Jackson Labs, and neonatal P2-P5 mice were used for cell isolation. Organ of Corti was isolated from Lgr5-GFP mice and further dissociated into single cells using trypsin. Cells were then cultured as previously described (Yin et al, 2014). Briefly, cells were entrapped in Matrigel and plated at the center of wells in a 24-well plate. Following polymerization of Matrigel, 500 μl of culture media (Advanced DMEM/F12 with N2 and B27) was added, containing growth factors including EGF (50 ng/ml) (epidermal growth factor), bFGF (20 ng/ml) (fibroblast growth factor), and IGF1 (50 ng/ml) (insulin-like growth factor 1), and small molecules including CHIR99021 (5 μM), valproic acid (1 mM), 2-phospho-L-ascorbic acid (280 μM), and 616452 (2 μM). Y-27632 (10 μM) was added for the first 2 days. In some experiments, bFGF was used at 50 ng/ml.
For single cell isolation, the organs of Corti were then treated with Cell Recovery Solution (Corning) for 1 h to separate cochlear epithelium from the underlying mesenchyme. Epithelia were then collected and treated with Trypsin (Life Technologies) for 15-20 minutes at 37° C. Single cells obtained by mechanical trituration were filtered by cell strainer (40 μm) and washed with cell culture media. For FACS sorting of Lgr5-high and Lgr5-Low cells, FACS ARIA (BD) was used and Lgr5-GFP was used as indicator of Lgr5 level. Sorted single cells were cultured in Matrigel in inner ear cell culture media with supplement growth factors and small molecules. Y-27632 was added in the first 2 days.
FACS analysis: Cell culture media was removed and Trypsin was added. After incubation at 37° C. for 10-20 min, colonies were dissociated into single cells. Live-cell number were counted using a hemocytometer and trypan blue staining. The cells were then stained with propidium iodide (PI) and analyzed with flow cytometry. The number of GFP-positive cells was calculated by multiplying the total number of cells by the percentage of GFP-positive cells.

patients = settings: cited from earlier work
[2] = tested on: expanded Lgr5-positive cells; assay: Differentiation of expanded Lgr5-positive cells to hair cells; format: cell-based, mouse; settings: for effect on differentiation of hair cells: in differentiation media
Experimental: Differentiation protocol: For differentiation of expanded Lgr5-positive cells, following 10 days of culture in the cell expansion condition (EFICVP6), the cell colonies were transferred to fresh Matrigel and further cultured in differentiation media. Differentiation media contains Notch pathway inhibitor (e.g. DAPT, D, 5 μM, or LY411575, LY, 5 μM), with or without Gsk3β inhibitor (e.g. CHIR99021). Media were changed every other day. Following another 6-10 days of incubation with differentiation media, the colonies were harvested for qPCR analysis or fixed with 4% PFA and immunostained with hair cell markers Myo7a and Prestin.
RNA extraction and quantitative real-time PCR (qPCR): RNA was isolated from cultured cells (RNeasy Mini Kit; Qiagen) according to the manufacturer's protocol. Quantitative real-time PCR was performed with QuantiTect Probe PCR kit (Qiagen) using commercially available primers and TaqMan probes (Myo7a and Hprt Life Technologies).
Immunocytochemistry staining: Colonies were fixed at room temperature in 4% paraformaldehyde/PBS for 15-20 min and then washed twice with PBS containing 0.1% BSA. Cells were then permeabilized with 0.25% Triton X-100 in PBS in 4° C. for 30 minutes. Following 2 washes with PBS containing 0.1% BSA, the cells were incubated with blocking solution (Power Block, Biogenex) for 1 h. Diluted primary antibodies (in Power Block solution) was applied for 4 h at room temperature or overnight at 4° C. Primary antibodies used were Myosin VIIA (1:500, Rabbit polyclonal from Proteus Biosciences) and Prestin (1:400, Goat polyclonal from Santa Cruz). After 3 washes for 5 minutes each, secondary antibodies (Alexafluor 594 and 647-conjugated; Invitrogen) were added at 1:500 dilution and incubated at room temperature for 30 minutes. Nuclei were visualized with 4,6-diamidino-2-phenylindole (DAPI, Vector Laboratories). Staining was visualized with inverted fluorescence microscope (EVOS; Advanced Microscopy Group).

[3] = named factor removed, versus EFICVP6

## Cc1cc(NC(=O)c2cccc(NC(=O)/C=C/CN(C)C)c2)ccc1Nc1nccc(-c2cccnc2)n1 [JNK-IN8]
[1]
  Lgr5-GFP expression, effect of addition: does not promote the expression of Lgr5-GFP

## Nc1ncnc2c1c(I)cn2[C@@H]1O[C@H](CO)[C@@H](O)[C@H]1O [5IT]
[1]
  Lgr5-GFP expression, effect of addition: does not promote the expression of Lgr5-GFP

## CN1CCc2c(c3ccccc3n2Cc2ccc(C(=O)NO)cc2)C1 [Tubastatin A]
[1]
  use in place of VPA: does not work

## C[C@@H]1CCN(C(=O)CC#N)C[C@@H]1N(C)c1ncnc2[nH]ccc12 [Tofacitinib]
[1]
  Lgr5-GFP expression, effect of addition: does not promote the expression of Lgr5-GFP

## N.N.[Cl][Pt][Cl] [Cisplatin]
patients; human, in vivo
  high frequency hearing loss (>8 kHZ): ≤ 90%

## Cc1cccc(-c2n[nH]cc2-c2ccc3ncccc3n2)n1 [compound 616452, 2-(3-(6-Methylpyridin-2-yl)-1H-pyrazol-4-yl)-1,5 napththyridine]
[1]
  passage / extended culture of the cells: enables the passage of cultured inner ear progenitor cells; also recorded: enables extended culture of the cells
  passage of colonies: up to 5 generations
  importance of the factor for cell proliferation: greater impact on cell proliferation; also recorded: significant reduction in proliferation; also recorded: important to promote cell proliferation
  GFP+ cell number: 9.8×10^4 cells
  total number of cells: 1.7×10^5 cells
  Lgr5-GFP expression, effect of addition: does not promote the expression of Lgr5-GFP; also recorded: didn't increase Lgr5-GFP expression
  cell proliferation, effect of addition: promotes the proliferation of Lgr5 inner ear progenitor cells
[1]; added on EFICVP
  colony size and GFP intensity: increases the intensity of Lgr5-GFP and the size of colonies; also recorded: tend to grow larger and possess brighter GFP expression than that in control conditions
[1]; [3]
  decrease of GFP+ cell number: ~3 fold
  decrease of total cell number: ~3 fold
[2]
  effect on differentiation of hair cells: inhibit the differentiation of hair cells

## bFGF: basic fibroblast growth factor
[1]
  importance of the factor for Lgr5-GFP expression: less important for GFP expression; also recorded: important for GFP expression
  importance of the factor for cell proliferation: important for cell proliferation; also recorded: greatly impacted cell proliferation; also recorded: greatest effect on proliferation; also recorded: important to promote cell proliferation
  GFP+ cell number: 1.4×10^4 cells
  GFP+ percentage: 32%
  cell proliferation, effect of addition: promotes the proliferation of Lgr5 inner ear progenitor cells; also recorded: increased cell proliferation
[1]; [3]
  decrease of GFP+ cell number: 20 fold
  decrease of GFP+ percentage: ~2 fold
  decrease of total cell number: 10 fold
[2]
  effect on differentiation of hair cells: inhibit the differentiation of hair cells

## c1ccc2c(-c3cnn4cc(-c5ccc(N6CCNCC6)cc5)cnc34)ccnc2c1 [LDN193189]
[1]
  Lgr5-GFP expression, effect of addition: does not promote the expression of Lgr5-GFP; also recorded: greatly decreased Lgr5-GFP expression

## IGF-1: insulin like growth factor 1
[1]
  importance of the factor for Lgr5-GFP expression: marginal effect on cell proliferation or GFP maintenance
  importance of the factor for cell proliferation: marginal effect on cell proliferation or GFP maintenance; also recorded: marginal effect to promote cell proliferation
  GFP+ percentage: 53%
  total number of cells: 4.1×10^5 cells
[1]; listed as IGF
  importance of the factor for Lgr5-GFP expression: marginal beneficial effect in promoting cell proliferation and GFP expression
  importance of the factor for cell proliferation: marginal beneficial effect in promoting cell proliferation and GFP expression
[1]; listed as IGF1
  importance of the factor for Lgr5-GFP expression: marginal beneficial effect on cell proliferation and Lgr5 expression
  importance of the factor for cell proliferation: marginal beneficial effect on cell proliferation and Lgr5 expression
[2]
  effect on differentiation of hair cells: inhibit the differentiation of hair cells

## Cc1ccc2nc(NC(=O)CSc3nc4c(c(=O)n3-c3ccccc3)SCC4)sc2c1 [IWP-2]
[2]; 10 days of differentiation
  hair cell generation (Myosin VIIA and Prestin staining): hair cell generation is rarely observed from cultured inner ear progenitor cells

## EGF: epidermal growth factor (NSDSECPLSHDGYCLHDGVCMYIEALDKYACNCVVGYIGERCQYRDLKWWELR; UniProt P01133 971-1023, looked up)
[1]
  importance of the factor for Lgr5-GFP expression: less important for GFP expression
  importance of the factor for cell proliferation: important for cell proliferation; also recorded: greater impact on cell proliferation; also recorded: significant reduction in proliferation; also recorded: important to promote cell proliferation
[1]; [3]
  decrease of GFP+ cell number: ~2 fold
  decrease of total cell number: ~2 fold
[2]
  effect on differentiation of hair cells: inhibit the differentiation of hair cells

## CCOC(=O)C1=C(N)Oc2ccc(Cl)cc2C1C(C#N)C(=O)OCC (stereo not shown) [SC79]
[1]
  Lgr5-GFP expression, effect of addition: does not promote the expression of Lgr5-GFP

## O=c1ncn2nc(Sc3ccc(F)cc3F)ccc2c1-c1c(Cl)cccc1Cl [VX745]
[1]
  Lgr5-GFP expression, effect of addition: does not promote the expression of Lgr5-GFP

## O=C(NOC[C@H](O)CO)c1ccc(F)c(F)c1Nc1ccc(I)cc1F [PD0325901]
[1]
  Lgr5-GFP expression, effect of addition: does not promote the expression of Lgr5-GFP

## CNC(=O)c1ccc(C)c(-n2c(C)cc(OCc3ccc(F)cc3F)c(Br)c2=O)c1 [PH797804]
[1]
  Lgr5-GFP expression, effect of addition: does not promote the expression of Lgr5-GFP

## O=C(CCCCCCNC(=O)c1cnc(N(c2ccccc2)c2ccccc2)nc1)NO [ACY1215]
[1]
  use in place of VPA: does not work

## CO[C@@H]1[C@H](N(C)C(=O)c2ccccc2)C[C@H]2O[C@]1(C)n1c3ccccc3c3c4c(c5c6ccccc6n2c5c31)C(=O)NC4 [PKC412]
[1]
  Lgr5-GFP expression, effect of addition: does not promote the expression of Lgr5-GFP

## [H]/N=C(/N)N[C@H]1[C@H](O)[C@@H](O)[C@H](O[C@@H]2O[C@@H](C)[C@](O)(C=O)[C@H]2O[C@@H]2O[C@@H](CO)[C@H](O)[C@@H](O)[C@@H]2NC)[C@@H](N/C(N)=N\[H])[C@@H]1O [streptomycin]
patients; 1 gram per day
  incidence of vestibular impairment: 25%
patients; 2 grams daily for 60 to 120 days
  patients with some vestibular impairment: ~75%

## CC(C)(C)OC(=O)Nc1ccc(-c2cc(C(=O)NCCCCCCC(=O)NO)no2)cc1 [CAY10603]
[1]
  use in place of VPA: does not work

## Cc1cc(N2CCOCC2)cc2[nH]c(-c3c(NC[C@@H](O)c4cccc(Cl)c4)cc[nH]c3=O)nc12 [BMS536924]
[1]
  Lgr5-GFP expression, effect of addition: does not promote the expression of Lgr5-GFP

## Laminin 511: added into Matrigel
[1]
  Lgr5-GFP expression, effect of addition: promotes GFP expression
